In brackets after ≈: the same amount, converted by molar mass. Positions of bridges follow the written chain, without caps; N, C: chain ends. Non-standard residues stand in square brackets, D forms with d. Residues, ends and D or L forms follow the SMILES beside them. Groups on a side chain read outwards from the residue. Chains are numbered I, II in the order given. *: point of attachment. X4 = CC(C)C[C@@H](NC(=O)CCCCCN)C(=O)NCCCC[C@@H](NC(=O)[C@@H](CC(C)C)NC(=O)CCCCCN)C(=O)*; Ahx = NCCCCCC(=O)O
Legend:
HEK293 cell line = assay type: cell-based; settings: 48 h
Protocol: HEK 293 cell line were cultured and maintained in DMEM (Dulbeccos modified Eagle
medium, Sigma Aldrich) supplemented with 10% FBS (Sigma Aldrich) and 1%
penicillin/streptomycin. Cells were incubated in a humidified incubator at 37°C in the presence
HEK 293 cell were seeded into 96 well plates at the density of 2 × 10^3 cells/well and incubated
in DMEM containing 10% FBS for 10-14 hours at 37°C in the presence of 5% CO2. The next
day, stock solution of compounds were prepared at concentration of 2 mg/mL in DMEM
containing 10% FBS. 1/2 or 1/3 serial dilution of the peptide dendrimers from 2 mg/mL or 200
µg/mL were performed in DMEM containing 10% FBS. The medium was removed from cell
culture and replaced with the compounds at different concentration after washing with PBS.
The cells were incubated in DMEM containing 10% FBS at 37°C in the presence of 5% CO 2.
Negative control was untreated cell culture without compounds and blank control was wells
without cell but only medium. After 48 hours, a final concentration of 10% AlamarBlue®
(Thermo Fisher Scientific, Reinach, CH) was added to each well . The cells were incubated for
3-5 hours at 37°C with 5% CO 2. The fluorescence was then measured on a Tecan Infinite
M1000 Pro plate reader at λex = 560 nm and λem = 590 nm. The value was normalized
according to the untreated cells.

[1] = system: S aureus COL (methicillin-resistant Staphylococcus aureus); settings: for MIC at pH 5.0, S aureus COL: COL (methicillin-resistant, pH 5); for MIC at pH 7.4, S aureus COL: COL (methicillin-resistant, pH 7.4); for MIC at pH 8.0, S aureus COL: COL (methicillin-resistant, pH 8)
K. pneumoniae NCTC 418 = settings: for MIC at pH 5.0, K. pneumoniae NCTC 418: NCTC 418, pH 5; for MIC at pH 7.4, K. pneumoniae NCTC 418: NCTC 418, pH 7.4; for MIC at pH 8.0, K. pneumoniae NCTC 418: NCTC 418, pH 8
A. baumannii ATCC 19606 = settings: for MIC at pH 5.0, A. baumannii ATCC 19606: ATCC 19606, pH 5; for MIC at pH 7.4, A. baumannii ATCC 19606: ATCC 19606, pH 7.4; for MIC at pH 8.0, A. baumannii ATCC 19606: ATCC 19606, pH 8
E. coli W3110 = settings: for MIC at pH 5.0, E. coli W3110: W3110, pH 5; for MIC at pH 7.4, E. coli W3110: W3110, pH 7.4; for MIC at pH 8.0, E. coli W3110: W3110, pH 8
P. aeruginosa PAO1 = settings: for MIC at pH 5.0, P. aeruginosa PAO1: PAO1, pH 5; for MIC at pH 7.4, P. aeruginosa PAO1: PAO1, pH 7.4; for MIC at pH 8.0, P. aeruginosa PAO1: PAO1, pH 8

Structure (SMILES)	IC50 HEK293 (HEK293 cell line)	MIC at pH 5.0, S aureus COL [1]	MIC at pH 7.4, S aureus COL [1]	MIC at pH 8.0, S aureus COL [1]	MIC at pH 5.0, K. pneumoniae NCTC 418 (K. pneumoniae NCTC 418)	MIC at pH 7.4, K. pneumoniae NCTC 418 (K. pneumoniae NCTC 418)	MIC at pH 8.0, K. pneumoniae NCTC 418 (K. pneumoniae NCTC 418)	MIC at pH 5.0, A. baumannii ATCC 19606 (A. baumannii ATCC 19606)	MIC at pH 7.4, A. baumannii ATCC 19606 (A. baumannii ATCC 19606)	MIC at pH 8.0, A. baumannii ATCC 19606 (A. baumannii ATCC 19606)	MIC at pH 5.0, E. coli W3110 (E. coli W3110)	MIC at pH 7.4, E. coli W3110 (E. coli W3110)	MIC at pH 8.0, E. coli W3110 (E. coli W3110)	MIC at pH 5.0, P. aeruginosa PAO1 (P. aeruginosa PAO1)	MIC at pH 7.4, P. aeruginosa PAO1 (P. aeruginosa PAO1)	MIC at pH 8.0, P. aeruginosa PAO1 (P. aeruginosa PAO1)
CC(C)C[C@@H](NC(=O)[C@@H](CC(C)C)NC(=O)[C@@H](CCCCN)NC(=O)[C@@H](CCCCNC(=O)[C@@H](CC(C)C)NC(=O)[C@@H](CC(C)C)NC(=O)[C@@H](CCCCNC(=O)[C@@H](CC(C)C)NC(=O)[C@@H](CCCCN)NC(=O)[C@@H](CCCCNC(=O)[C@@H](CC(C)C)NC(=O)[C@H](N)CCCCN)NC(=O)[C@@H](CC(C)C)NC(=O)[C@H](N)CCCCN)NC(=O)[C@@H](CC(C)C)NC(=O)[C@@H](CCCCN)NC(=O)[C@@H](CCCCNC(=O)[C@@H](CC(C)C)NC(=O)[C@H](N)CCCCN)NC(=O)[C@@H](CC(C)C)NC(=O)[C@H](N)CCCCN)NC(=O)[C@@H](CC(C)C)NC(=O)[C@@H](CC(C)C)NC(=O)[C@@H](CCCCNC(=O)[C@@H](CC(C)C)NC(=O)[C@@H](CCCCN)NC(=O)[C@@H](CCCCNC(=O)[C@@H](CC(C)C)NC(=O)[C@H](N)CCCCN)NC(=O)[C@@H](CC(C)C)NC(=O)[C@H](N)CCCCN)NC(=O)[C@@H](CC(C)C)NC(=O)[C@@H](CCCCN)NC(=O)[C@@H](CCCCNC(=O)[C@@H](CC(C)C)NC(=O)[C@H](N)CCCCN)NC(=O)[C@@H](CC(C)C)NC(=O)[C@H](N)CCCCN)C(N)=O [D-T25, reference compound] (HELM PEPTIDE1{[dK].[dL].[dK].[dK].[dL].[dK].[dL].[dL].[dK].[dK].[dL].[dL].[am]}|PEPTIDE2{[dK].[dL]}|PEPTIDE3{[dK].[dL].[dK].[dK].[dL].[dK].[dL].[dL]}|PEPTIDE4{[dK].[dL]}|PEPTIDE5{[dK].[dL].[dK].[dK].[dL]}|PEPTIDE6{[dK].[dL]}|PEPTIDE7{[dK].[dL].[dK].[dK].[dL]}|PEPTIDE8{[dK].[dL]}$PEPTIDE1,PEPTIDE2,3:R3-2:R2|PEPTIDE3,PEPTIDE4,3:R3-2:R2|PEPTIDE5,PEPTIDE6,3:R3-2:R2|PEPTIDE7,PEPTIDE8,3:R3-2:R2|PEPTIDE1,PEPTIDE7,6:R3-5:R2|PEPTIDE1,PEPTIDE3,9:R3-8:R2|PEPTIDE3,PEPTIDE5,6:R3-5:R2$$$V2.0)	33 ± 3 µg/mL (≈ 7.15 µM)	> 64 μg/mL	> 64 μg/mL	32 μg/mL	> 64 μg/mL	16 μg/mL	16 μg/mL	32 μg/mL	8 μg/mL	4 μg/mL	32 μg/mL	8 μg/mL	4 μg/mL	32 μg/mL	8 μg/mL	8 μg/mL
CC(C)C[C@@H](NC(=O)[C@@H](CC(C)C)NC(=O)[C@@H](CC(C)C)NC(=O)[C@@H](CCCCNC(=O)[C@@H](CC(C)C)NC(=O)[C@@H](CC(C)C)NC(=O)[C@@H](CCCCNC(=O)[C@@H](CCCCN)NC(=O)[C@@H](CC(C)C)NC(=O)[C@@H](CCCCNC(=O)[C@@H](CC(C)C)NC(=O)[C@H](N)CCCCN)NC(=O)[C@@H](CC(C)C)NC(=O)[C@H](N)CCCCN)NC(=O)[C@@H](CCCCN)NC(=O)[C@@H](CC(C)C)NC(=O)[C@@H](CCCCNC(=O)[C@@H](CC(C)C)NC(=O)[C@H](N)CCCCN)NC(=O)[C@@H](CC(C)C)NC(=O)[C@H](N)CCCCN)NC(=O)[C@@H](CC(C)C)NC(=O)[C@@H](CC(C)C)NC(=O)[C@@H](CCCCNC(=O)[C@@H](CCCCN)NC(=O)[C@@H](CC(C)C)NC(=O)[C@@H](CCCCNC(=O)[C@@H](CC(C)C)NC(=O)[C@H](N)CCCCN)NC(=O)[C@@H](CC(C)C)NC(=O)[C@H](N)CCCCN)NC(=O)[C@@H](CCCCN)NC(=O)[C@@H](CC(C)C)NC(=O)[C@@H](CCCCNC(=O)[C@@H](CC(C)C)NC(=O)[C@H](N)CCCCN)NC(=O)[C@@H](CC(C)C)NC(=O)[C@H](N)CCCCN)C(N)=O [D-X18] (HELM PEPTIDE1{[dK].[dL].[dK].[dL].[dK].[dK].[dL].[dL].[dK].[dL].[dL].[dL].[am]}|PEPTIDE2{[dK].[dL]}|PEPTIDE3{[dK].[dL].[dK].[dL].[dK].[dK].[dL].[dL]}|PEPTIDE4{[dK].[dL]}|PEPTIDE5{[dK].[dL].[dK].[dL].[dK]}|PEPTIDE6{[dK].[dL]}|PEPTIDE7{[dK].[dL].[dK].[dL].[dK]}|PEPTIDE8{[dK].[dL]}$PEPTIDE1,PEPTIDE2,3:R3-2:R2|PEPTIDE3,PEPTIDE4,3:R3-2:R2|PEPTIDE5,PEPTIDE6,3:R3-2:R2|PEPTIDE7,PEPTIDE8,3:R3-2:R2|PEPTIDE1,PEPTIDE7,6:R3-5:R2|PEPTIDE1,PEPTIDE3,9:R3-8:R2|PEPTIDE3,PEPTIDE5,6:R3-5:R2$$$V2.0)	47 ± 12 µg/mL (≈ 10.2 µM)	> 64 μg/mL	> 64 μg/mL	32 μg/mL	>64/>64/>64 μg/mL	>64/>64/>64 μg/mL	>64/>64/>64 μg/mL	32 μg/mL	64 μg/mL	32 μg/mL	32 μg/mL	64 μg/mL	32 μg/mL	32 μg/mL	64 μg/mL	32 μg/mL
CC(C)C[C@@H](NC(=O)[C@@H](CC(C)C)NC(=O)[C@@H](CC(C)C)NC(=O)[C@@H](CCCCNC(=O)[C@@H](CC(C)C)NC(=O)[C@@H](CC(C)C)NC(=O)[C@@H](CCCCNC(=O)[C@@H](CCCCN)NC(=O)[C@@H](CC(C)C)NC(=O)[C@@H](CCCCNC(=O)[C@@H](CC(C)C)NC(=O)CCCCCN)NC(=O)[C@@H](CC(C)C)NC(=O)CCCCCN)NC(=O)[C@@H](CCCCN)NC(=O)[C@@H](CC(C)C)NC(=O)[C@@H](CCCCNC(=O)[C@@H](CC(C)C)NC(=O)CCCCCN)NC(=O)[C@@H](CC(C)C)NC(=O)CCCCCN)NC(=O)[C@@H](CC(C)C)NC(=O)[C@@H](CC(C)C)NC(=O)[C@@H](CCCCNC(=O)[C@@H](CCCCN)NC(=O)[C@@H](CC(C)C)NC(=O)[C@@H](CCCCNC(=O)[C@@H](CC(C)C)NC(=O)CCCCCN)NC(=O)[C@@H](CC(C)C)NC(=O)CCCCCN)NC(=O)[C@@H](CCCCN)NC(=O)[C@@H](CC(C)C)NC(=O)[C@@H](CCCCNC(=O)[C@@H](CC(C)C)NC(=O)CCCCCN)NC(=O)[C@@H](CC(C)C)NC(=O)CCCCCN)C(N)=O [D-aX18] (I: H-[Ahx][dL][dK]([dL-Ahx])[dL][dK][dK]([dK-dL-X4])[dL][dL][dK][dL][dL][dL]-NH2 / II: H-[Ahx][dL][dK]([dL-Ahx])[dL][dK][dK]([dK-dL-X4])[dL][dL]; amide I:9-II:C)	21 ± 2 µg/mL (≈ 4.69 µM)	> 64 μg/mL	> 64 μg/mL	16 μg/mL	>64/>64/>64 μg/mL	>64/>64/>64 μg/mL	>64/>64/>64 μg/mL	32 μg/mL	> 64 μg/mL	16 μg/mL	32 μg/mL	> 64 μg/mL	32 μg/mL	64/>64/64 μg/mL	64/>64/64 μg/mL	64/>64/64 μg/mL

Reference: paper PMC9780108, “An intrinsically disordered antimicrobial peptide dendrimer from stereorandomized virtual screening” (Cell Reports. Physical Science, 2022)
